# Results as given in patent publication US8431564B2 (Merck Sharp & Dohme B.V., priority 2009, dated 2013).
# Target: T1, human FSH receptor (Homo sapiens, UniProt P23945)
# T1 construct: expressed in transfected cells; host or cells: CHO (Chinese Hamster Ovary) cells, stably transfected, cotransfected with CRE-luciferase reporter
# T1 sequence (P23945 18-695): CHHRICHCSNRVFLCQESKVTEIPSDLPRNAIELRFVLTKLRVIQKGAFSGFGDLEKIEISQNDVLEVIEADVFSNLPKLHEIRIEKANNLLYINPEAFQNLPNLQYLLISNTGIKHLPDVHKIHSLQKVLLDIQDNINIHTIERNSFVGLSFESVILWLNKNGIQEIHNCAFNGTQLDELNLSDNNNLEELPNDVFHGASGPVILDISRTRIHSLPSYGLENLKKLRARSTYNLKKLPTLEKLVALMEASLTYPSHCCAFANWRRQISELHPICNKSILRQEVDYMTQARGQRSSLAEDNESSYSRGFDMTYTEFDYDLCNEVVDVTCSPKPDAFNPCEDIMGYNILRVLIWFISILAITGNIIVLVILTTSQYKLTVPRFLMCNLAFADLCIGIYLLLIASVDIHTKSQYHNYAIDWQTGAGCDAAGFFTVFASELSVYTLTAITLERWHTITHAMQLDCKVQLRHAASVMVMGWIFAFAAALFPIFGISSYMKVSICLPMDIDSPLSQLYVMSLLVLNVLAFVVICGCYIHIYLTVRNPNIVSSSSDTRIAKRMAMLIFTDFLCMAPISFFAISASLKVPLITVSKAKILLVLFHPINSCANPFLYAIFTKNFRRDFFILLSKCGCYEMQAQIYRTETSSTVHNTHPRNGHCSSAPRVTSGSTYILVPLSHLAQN
# Test: Agonistic activity at the human FSH receptor expressed in CHO cells (CRE-luciferase reporter)
# Type: cell-based
# Conditions: CHO cells stably transfected with human FSH receptor and CRE/luciferase reporter; 4 hours incubation; pEC50 is -log EC50; read-out: hFSHRago (CHO luc) pEC50 (converted)
# Excerpt: The term EC50 means the concentration of the test compound that elicits half-maximal (50%) stimulation compared to the compound's maximally attainable effect. pEC50 is the negative log of EC50. The values can be determined e.g. in a cell line transfected with a FSH receptor gene and cotransfected with a cAMP responsive element/promoter directing the expression of a reporter gene. For the determination a software program such as MathIQ (version 2.0, ID Business Solutions Limited) can be used.
# Agonistic activity of the compounds at the human FSH receptor was determined in Chinese Hamster Ovary (CHO) cells stably transfected with the human FSH receptor and cotransfected with a cAMP responsive element (CRE)/promotor directing the expression of a firefly luciferase reporter gene. Binding of the compounds to the Gs protein-coupled FSH receptor will result in an increase of cAMP, which in turn will induce an increased transactivation of the luciferase reporter. Cells (7,500 cells/well of a 384 well plate) were incubated in Dulbecco' minimal essential F12 modified medium (Invitrogen), supplemented with 1 μg/ml bovine insulin, 5 μg/ml human apo-transferrin, 80 U/ml penicillin G and 80 μg/ml streptomycin with the test compounds (concentration between 0.0316 nM and 10.0 μM) in duplicate in a humidified atmosphere (95%) at 5-7% CO2 and 37° C. The final concentration of DMSO was 1%. After 4 hours of incubation, plates were allowed to adjust to room temperature for 1 hour. Then, Luclite (PerkinElmer) solution was added to the wells and cells were allowed to lyse for at least 1 hour at room temperature. Subsequently, luciferase activity was measured in a luminescence counter. The signal is expressed as counts per second (cps). The EC50 (concentration of the test compound that elicits half-maximal (50%) luciferase stimulation compared to the compound's maximally attainable effect) and efficacy values (maximal effect of the test compound as percentage of the maximal effect of recombinant human FSH) of the compounds were determined using the software program MathIQ (version 2.0, ID Business Solutions Limited). pEC50 data (pEC50 is −log EC50) are indicated at the synthesis examples.
row,EC50 [nM],Compound
1,4.07,"COc1cc2c(cc1-n1cc(C[C@H](O)CO)nn1)-c1c(-c3cccs3)c3c(n1CC2)C(=O)N(C(C)(C)C)CCCC3 [Compound 20f, (S)-9-tert-butyl-14-(thien-2-yl)-2-(4-(2,3-dihydroxypropyl)-1H-1,2,3-triazol-1-yl)-3-methoxy-5,6,10,11,12,13-hexahydroazocino[4′,3′:4,5]pyrrolo[2,1-a]isoquinolin-8(9H)-one]"
2,3.24,"COc1cc2c(cc1-n1cc(C[C@@H](O)CO)nn1)-c1c(-c3cccs3)c3c(n1CC2)C(=O)N(C(C)(C)C)CCCC3 [Compound 20g, (R)-9-tert-butyl-14-(thien-2-yl)-2-(4-(2,3-dihydroxypropyl)-1H-1,2,3-triazol-1-yl)-3-methoxy-5,6,10,11,12,13-hexahydroazocino[4′,3′:4,5]pyrrolo[2,1-a]isoquinolin-8(9H)-one]"
3,1.78,"COc1cc2c(cc1C#N)-c1c(-c3cccs3)c3c(n1CC2)C(=O)N(C(C)(C)C)CCCC3 [Compound 20h, 9-tert-butyl-14-(thien-2-yl)-3-methoxy-5,6,10,11,12,13-hexahydroazocino[4′,3′:4,5]pyrrolo[2,1-a]isoquinolin-8(9H)-one-2-carbonitrile]"
4,5.5,"COc1cc2c(cc1[C@H](O)[C@@H](O)CO)-c1c(-c3cccs3)c3c(n1CC2)C(=O)N(C(C)(C)C)CCCC3 [Compound 21h, (1S,2S)-1-(9-tert-butyl-14-(thien-2-yl)-3-methoxy-5,6,10,11,12,13-hexahydroazocino[4′,3′:4,5]pyrrolo[2,1-a]isoquinolin-8(9H)-on-2-yl)propane-1,2,3-triol]"
5,0.251,"COc1cc2c(cc1CCCO)-c1c(-c3cccs3)c3c(n1CC2)C(=O)N(C(C)(C)C)CCCC3 [Compound 21j, 3-(9-tert-butyl-14-(thien-2-yl)-3-methoxy-5,6,10,11,12,13-hexahydroazocino[4′,3′:4,5]pyrrolo[2,1-a]isoquinolin-8(9H)-on-2-yl)propan-1-ol]"
6,4.68,"COc1cc2c(cc1NC(=O)CN(C)C)-c1c(-c3cccs3)c3c(n1CC2)C(=O)N(C(C)(C)C)CCCC3 [Compound 22b, 2-dimethylamino-N-(9-tert-butyl-14-(thien-2-yl)-3-methoxy-5,6,10,11,12,13-hexahydroazocino[4′,3′:4,5]pyrrolo[2,1-a]isoquinolin-8(9H)-on-2-yl)acetamide]"
7,1.26,"COc1cc2c(cc1NC(=O)CN1CC(O)C1)-c1c(-c3cccs3)c3c(n1CC2)C(=O)N(C(C)(C)C)CCCC3 [Compound 22c, 2-(3-hydroxyazetidin-1-yl)-N-(9-tert-butyl-14-(thien-2-yl)-3-methoxy-5,6,10,11,12,13-hexahydroazocino[4′,3′:4,5]pyrrolo[2,1-a]isoquinolin-8(9H)-on-2-yl)acetamide]"
8,3.31,"CCN1CCN(CC(=O)Nc2cc3c(cc2OC)CCn2c4c(c(-c5cccs5)c2-3)CCCCN(C(C)(C)C)C4=O)CC1 [Compound 22d, 2-(4-ethylpiperazin-1-yl)-N-(9-tert-butyl-14-(thien-2-yl)-3-methoxy-5,6,10,11,12,13-hexahydroazocino[4′,3′:4,5]pyrrolo[2,1-a]isoquinolin-8(9H)-on-2-yl)acetamide]"
9,245,"CC[S+]([O-])c1cc2c(cc1OC)CCn1c3c(c(Br)c1-2)CCCCN(C(C)(C)C)C3=O (centres unmarked) [Compound 23d, 9-tert-butyl-14-bromo-2-ethylsulfinyl-3-methoxy-5,6,10,11,12,13-hexahydroazocino[4′,3′:4,5]pyrrolo[2,1-a]isoquinolin-8(9H)-one]"
10,155,"CCS(=O)(=O)c1cc2c(cc1OC)CCn1c3c(c(Br)c1-2)CCCCN(C(C)(C)C)C3=O [Compound 23e, 9-tert-butyl-14-bromo-2-ethylsulfonyl-3-methoxy-5,6,10,11,12,13-hexahydroazocino[4′,3′:4,5]pyrrolo[2,1-a]isoquinolin-8(9H)-one]"
11,1.82,"CCS(=O)(=O)c1cc2c(cc1OC)CCn1c3c(c(-c4cccs4)c1-2)CCCCN(C(C)(C)C)C3=O [Compound 23f, 9-tert-butyl-14-(thien-2-yl)-2-ethylsulfonyl-3-methoxy-5,6,10,11,12,13-hexahydroazocino[4′,3′:4,5]pyrrolo[2,1-a]isoquinolin-8(9H)-one]"
12,10.7,"CCS(=O)(=O)c1cc2c(cc1OC)CCn1c3c(c(-c4cncs4)c1-2)CCCCN(C(C)(C)C)C3=O [Compound 23g, 9-tert-butyl-14-(thiazol-5-yl)-2-ethylsulfonyl-3-methoxy-5,6,10,11,12,13-hexahydroazocino[4′,3′:4,5]pyrrolo[2,1-a]isoquinolin-8(9H)-one]"
13,389,"COc1cc2c(cc1-c1cccnc1)-c1c(-c3cccs3)c3c(n1CC2)C(=O)N(C(C)(C)C)CCC(C)(C)C3 [Compound 24k, 9-tert-butyl-12,12-dimethyl-3-methoxy-2-pyridin-3-yl-14-(2-thienyl)-5,6,10,11,12,13-hexahydroazocino[4′,3′:4,5]pyrrolo[2,1-a]isoquinolin-8(9H)-one]"
14,6.31,"COc1cc2c(cc1-c1cccnc1)-c1c(C3=CCOCC3)c3c(n1CC2)C(=O)N(C(C)(C)C)CCCC3 [Compound 25c, 9-tert-butyl-2-(3-pyridyl)-14-(3,6-dihydro-2H-pyran-4-yl)-3-methoxy-5,6,10,11,12,13-hexahydroazocino[4′,3′:4,5]pyrrolo[2,1-a]isoquinolin-8(9H)-one]"
15,10.7,"COc1cc2c(cc1-c1cccnc1)-c1c(C3=CCSCC3)c3c(n1CC2)C(=O)N(C(C)(C)C)CCCC3 [Compound 25d, 9-tert-butyl-2-(3-pyridyl)-14-(3,6-dihydro-2H-thiopyran-4-yl)-3-methoxy-5,6,10,11,12,13-hexahydroazocino[4′,3′:4,5]pyrrolo[2,1-a]isoquinolin-8(9H)-one]"
16,1,"COC(=O)c1cc2c(cc1OC)CCn1c3c(c(-c4cccs4)c1-2)CCCCN(C(C)(C)C)C3=O [Compound 26a, methyl 9-tert-butyl-3-methoxy-14-(thiophen-2-yl)-5,6,10,11,12,13-hexahydroazocino[4′,3′:4,5]pyrrolo[2,1-a]isoquinolin-8(9H)-one-2-carboxylate]"
17,44.7,"COc1cc2c(cc1C(=O)O)-c1c(-c3cccs3)c3c(n1CC2)C(=O)N(C(C)(C)C)CCCC3 [Compound 26b, 9-tert-butyl-3-methoxy-14-(thiophen-2-yl)-5,6,10,11,12,13-hexahydroazocino[4′,3′:4,5]pyrrolo[2,1-a]isoquinolin-8(9H)-one-2-carboxylic acid]"
18,1.78,"COc1cc2c(cc1C(=O)NCCN1CCOCC1)-c1c(-c3cccs3)c3c(n1CC2)C(=O)N(C(C)(C)C)CCCC3 [Compound 26c1, 9-tert-butyl-3-methoxy-N^2-(2-morpholinoethyl)-14-(thiophen-2-yl)-5,6,10,11,12,13-hexahydroazocino[4′,3′:4,5]pyrrolo[2,1-a]isoquinolin-8(9H)-one-2-carboxamide]"
19,37.2,"COC(=O)[C@@H]1CCCN1C(=O)c1cc2c(cc1OC)CCn1c3c(c(-c4cccs4)c1-2)CCCCN(C(C)(C)C)C3=O [Compound 26c2, (S)-9-tert-butyl-3-methoxy-14-(thiophen-2-yl)-5,6,10,11,12,13-hexahydroazocino[4′,3′:4,5]pyrrolo[2,1-a]isoquinolin-8(9H)-one-2-carbonyl(1-pyrrolidinyl-2-carboxylate) methyl ester]"
20,27.5,"COc1cc2c(cc1C(=O)N1CCC[C@H]1CO)-c1c(-c3cccs3)c3c(n1CC2)C(=O)N(C(C)(C)C)CCCC3 [Compound 26c3, (S)-9-tert-butyl-3-methoxy-2-(2-hydroxymethyl-1-pyrrolidinylcarbonyl)-14-(thiophen-2-yl)-5,6,10,11,12,13-hexahydroazocino[4′,3′:4,5]pyrrolo[2,1-a]isoquinolin-8(9H)-one]"
